Assay results: patent US20240067693A1, “POLYPEPTIDES AND USES THEREOF” (MEDIMMUNE LIMITED, priority 2020, published 2024)
Numbered stars: 1 amine (or outer) side, 2 acyl side, 3 side chain; on linkers, the order of the positions; unused ones are H or OH. Bridge positions count the residues as written; N and C are the ends. Square brackets hold non-standard residues; d marks the D form. Side chains are listed from the residue outwards. Peptide text beside a SMILES is read from it. * marks the point of attachment. C18 diacid = O=C(O)CCCCCCCCCCCCCCCCC(=O)*; γGlu = O=C(O)[C@H](CCC(=O)[*:2])N[*:1]; Aib = CC(C)(N)C(=O)O

Columns and labels:
[1] = target: T1, human calcitonin receptor (hCTR) (Homo sapiens, UniProt P30988); test: cAMP production in 1321N1 cells with stable recombinant expression of human calcitonin receptor (hCTR); format: cell-based; settings: cAMP, 1321N1 cells, assay buffer with 0.1% BSA; read-out: EC50 (pM) hCTR
T1 construct: expressed in transfected cells
T1 sequence (P30988 25-474): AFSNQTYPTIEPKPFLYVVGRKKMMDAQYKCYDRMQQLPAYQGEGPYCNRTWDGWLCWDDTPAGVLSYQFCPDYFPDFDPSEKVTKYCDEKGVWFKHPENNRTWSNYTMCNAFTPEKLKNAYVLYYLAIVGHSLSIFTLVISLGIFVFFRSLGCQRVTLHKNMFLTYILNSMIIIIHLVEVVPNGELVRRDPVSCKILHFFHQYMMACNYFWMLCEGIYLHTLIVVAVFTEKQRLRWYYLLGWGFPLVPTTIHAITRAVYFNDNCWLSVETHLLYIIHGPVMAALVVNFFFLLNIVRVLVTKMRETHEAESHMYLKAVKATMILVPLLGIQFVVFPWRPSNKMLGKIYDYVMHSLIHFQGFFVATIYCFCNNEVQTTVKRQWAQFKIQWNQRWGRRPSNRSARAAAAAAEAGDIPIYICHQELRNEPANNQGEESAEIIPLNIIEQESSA
Procedure, shortened: (§1)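 Receptor-expressing cells (human receptors in 1321N1, rat receptors in HEK) incubated 30 min at room temperature with peptide in HBSS/HEPES pH 7.4, 0.1% BSA, 0.5 mM IBMX. cAMP read by HTRF; EC50 from 4-parameter fit as % of maximal amylin or calcitonin response.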

[2] = target: T2, human amylin receptor (calcitonin receptor co-expressed with receptor activity modifying protein, RAMP3) (hAMYR3) (Homo sapiens, UniProt O60896+P30988); test: cAMP production in 1321N1 cells with stable recombinant expression of human amylin receptor (hAMYR3); format: cell-based; settings: for Ratio (selectivity hAMYR vs hCTR, ratio of EC50 values at the two receptors): EC50 hCTR / EC50 hAMYR3; for EC50: cAMP, 1321N1 cells, assay buffer with 0.1% BSA, read-out: EC50 (pM) hAMYR3
T2 construct: expressed in transfected cells
T2 sequence (P30988 25-474): T1 sequence (P30988 25-474)
T2 sequence (O60896 24-148 partner): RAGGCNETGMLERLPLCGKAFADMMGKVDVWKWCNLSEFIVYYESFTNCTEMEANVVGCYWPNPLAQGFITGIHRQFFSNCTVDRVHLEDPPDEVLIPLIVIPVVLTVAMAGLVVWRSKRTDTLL
Procedure, shortened: as §1

SMILES | EC50 [1] [pM] | Ratio (selectivity hAMYR vs hCTR, ratio of EC50 values at the two receptors) [2] | EC50 [2] [pM]
CC[C@H](C)[C@H](NC(=O)[C@@H]1CCCN1C(=O)CNC(=O)[C@H](Cc1ccccc1)NC(=O)[C@H](CC(N)=O)NC(=O)C(C)(C)NC(=O)[C@H](CO)NC(=O)[C@H](CO)NC(=O)[C@H](Cc1c[nH]cn1)NC(=O)[C@@H](NC(=O)[C@H](CC(C)C)NC(=O)[C@H](Cc1ccccc1)NC(=O)[C@H](Cc1c[nH]cn1)NC(=O)[C@H](C)NC(=O)[C@H](CC(C)C)NC(=O)[C@H](CCCNC(=N)N)NC(=O)[C@H](CCC(N)=O)NC(=O)[C@@H](NC(=O)[C@H](C)NC(=O)[C@@H]1CSSC[C@H](NC(=O)[C@H](CCCCN)NC(=O)[C@@H](N)CCCCNC(=O)CC[C@H](NC(=O)CCCCCCCCCCCCCCCCC(=O)O)C(=O)O)C(=O)N[C@@H](CC(N)=O)C(=O)N[C@@H]([C@@H](C)O)C(=O)N[C@@H](C)C(=O)N[C@@H]([C@@H](C)O)C(=O)N1)[C@@H](C)O)C(C)C)C(=O)N[C@@H](CC(C)C)C(=O)N1CCC[C@H]1C(=O)N1CCC[C@H]1C(=O)N[C@H](C(=O)N[C@@H](CC(N)=O)C(=O)N[C@H](C(=O)NCC(=O)N[C@@H](CO)C(=O)N[C@@H](CCC(=O)O)C(=O)N[C@H](C(=O)N[C@@H](Cc1ccc(O)cc1)C(N)=O)[C@@H](C)O)C(C)C)[C@@H](C)O [Peptide 47, K(γE-C18diacid)K[CNTATC]ATQRLAHFLVHSS(Aib)NFGPILPPTNVGSETY-amide] (H-K([γGlu-C18 diacid])KCNTATCATQRLAHFLVHSS[Aib]NFGPILPPTNVGSETY-NH2; disulfide 3-8; N-terminus assumed) | 468 | 2 | 218
CC[C@H](C)[C@H](NC(=O)[C@@H]1CCCN1C(=O)CNC(=O)[C@H](Cc1ccccc1)NC(=O)[C@H](CC(N)=O)NC(=O)C(C)(C)NC(=O)[C@H](CO)NC(=O)[C@H](CO)NC(=O)[C@H](Cc1c[nH]cn1)NC(=O)[C@@H](NC(=O)[C@H](CC(C)C)NC(=O)[C@H](Cc1ccccc1)NC(=O)[C@H](CC(N)=O)NC(=O)[C@H](C)NC(=O)[C@H](CC(C)C)NC(=O)[C@H](CCCNC(=N)N)NC(=O)[C@H](CCC(N)=O)NC(=O)[C@@H](NC(=O)[C@H](C)NC(=O)[C@@H]1CSSC[C@H](NC(=O)[C@@H](N)CCCCNC(=O)CC[C@H](NC(=O)CC[C@H](NC(=O)CCCCCCCCCCCCCCCCC(=O)O)C(=O)O)C(=O)O)C(=O)N[C@@H](CC(N)=O)C(=O)N[C@@H]([C@@H](C)O)C(=O)N[C@@H](C)C(=O)N[C@@H]([C@@H](C)O)C(=O)N1)[C@@H](C)O)C(C)C)C(=O)N[C@@H](CC(C)C)C(=O)N1CCC[C@H]1C(=O)N1CCC[C@H]1C(=O)N[C@H](C(=O)N[C@@H](CCC(=O)O)C(=O)N[C@H](C(=O)NCC(=O)N[C@@H](CO)C(=O)N[C@@H](CC(N)=O)C(=O)N[C@H](C(=O)N[C@@H](Cc1ccc(O)cc1)C(N)=O)[C@@H](C)O)C(C)C)[C@@H](C)O [Peptide 49, K(γE-γE-C18diacid)[CNTATC]ATQRLANFLVHSS(Aib)NFGPILPPTEVGSNTY-amide] (H-K([γGlu-γGlu-C18 diacid])CNTATCATQRLANFLVHSS[Aib]NFGPILPPTEVGSNTY-NH2; disulfide 2-7) | 4140 | 12 | 334
CC[C@H](C)[C@H](NC(=O)[C@@H]1CCCN1C(=O)CNC(=O)[C@H](Cc1ccccc1)NC(=O)[C@H](CC(N)=O)NC(=O)C(C)(C)NC(=O)[C@H](CO)NC(=O)[C@H](CO)NC(=O)[C@H](Cc1c[nH]cn1)NC(=O)[C@H](CCCNC(=N)N)NC(=O)[C@H](CC(C)C)NC(=O)[C@H](Cc1ccccc1)NC(=O)[C@H](CC(N)=O)NC(=O)[C@H](C)NC(=O)[C@H](CC(C)C)NC(=O)[C@H](CCCNC(=N)N)NC(=O)[C@H](CCC(N)=O)NC(=O)[C@@H](NC(=O)[C@H](C)NC(=O)[C@@H]1CSSC[C@H](NC(=O)[C@@H](N)CCCCNC(=O)CC[C@H](NC(=O)CC[C@H](NC(=O)CCCCCCCCCCCCCCCCC(=O)O)C(=O)O)C(=O)O)C(=O)N[C@@H](CC(N)=O)C(=O)N[C@@H]([C@@H](C)O)C(=O)N[C@@H](C)C(=O)N[C@@H]([C@@H](C)O)C(=O)N1)[C@@H](C)O)C(=O)N[C@@H](CC(C)C)C(=O)N1CCC[C@H]1C(=O)N1CCC[C@H]1C(=O)N[C@H](C(=O)N[C@@H](CCC(=O)O)C(=O)N[C@H](C(=O)NCC(=O)N[C@@H](CO)C(=O)N[C@@H](CC(N)=O)C(=O)N[C@H](C(=O)N[C@@H](Cc1ccc(O)cc1)C(N)=O)[C@@H](C)O)C(C)C)[C@@H](C)O [Peptide 50, K(γE-γE-C18diacid)[CNTATC]ATQRLANFLRHSS(Aib)NFGPILPPTEVGSNTY-amide] (H-K([γGlu-γGlu-C18 diacid])CNTATCATQRLANFLRHSS[Aib]NFGPILPPTEVGSNTY-NH2; disulfide 2-7; N-terminus assumed) | 18900 | 54 | 349
CC[C@H](C)[C@H](NC(=O)[C@@H]1CCCN1C(=O)CNC(=O)[C@H](Cc1ccccc1)NC(=O)[C@H](CC(N)=O)NC(=O)C(C)(C)NC(=O)[C@H](CO)NC(=O)[C@H](CO)NC(=O)[C@H](Cc1c[nH]cn1)NC(=O)[C@H](CO)NC(=O)[C@H](CC(C)C)NC(=O)[C@H](Cc1ccccc1)NC(=O)[C@H](CC(N)=O)NC(=O)[C@H](C)NC(=O)[C@H](CC(C)C)NC(=O)[C@H](CCCNC(=N)N)NC(=O)[C@H](CCC(N)=O)NC(=O)[C@@H](NC(=O)[C@H](C)NC(=O)[C@@H]1CSSC[C@H](NC(=O)[C@H](CCCCN)NC(=O)[C@@H](N)CCCCNC(=O)CC[C@H](NC(=O)CCCCCCCCCCCCCCCCC(=O)O)C(=O)O)C(=O)N[C@@H](CC(N)=O)C(=O)N[C@@H]([C@@H](C)O)C(=O)N[C@@H](C)C(=O)N[C@@H]([C@@H](C)O)C(=O)N1)[C@@H](C)O)C(=O)N[C@@H](CC(C)C)C(=O)N1CCC[C@H]1C(=O)N1CCC[C@H]1C(=O)N[C@H](C(=O)N[C@@H](Cc1c[nH]cn1)C(=O)N[C@H](C(=O)NCC(=O)N[C@@H](CO)C(=O)N[C@@H](CC(N)=O)C(=O)N[C@H](C(=O)N[C@@H](Cc1ccc(O)cc1)C(N)=O)[C@@H](C)O)C(C)C)[C@@H](C)O [Peptide 51, K(γE-C18diacid)K[CNTATC]ATQRLANFLSHSS(Aib)NFGPILPPTHVGSNTY-amide] (H-K([γGlu-C18 diacid])KCNTATCATQRLANFLSHSS[Aib]NFGPILPPTHVGSNTY-NH2; disulfide 3-8; N-terminus assumed) | 1640 | 13 | 126
CC[C@H](C)[C@H](NC(=O)[C@@H]1CCCN1C(=O)CNC(=O)[C@H](Cc1ccccc1)NC(=O)[C@H](CC(N)=O)NC(=O)C(C)(C)NC(=O)[C@H](CO)NC(=O)[C@H](CO)NC(=O)[C@H](Cc1c[nH]cn1)NC(=O)[C@H](CO)NC(=O)[C@H](CC(C)C)NC(=O)[C@H](Cc1ccccc1)NC(=O)[C@H](CC(N)=O)NC(=O)[C@H](C)NC(=O)[C@H](CC(C)C)NC(=O)[C@H](CCCNC(=N)N)NC(=O)[C@H](CCC(N)=O)NC(=O)[C@@H](NC(=O)[C@H](C)NC(=O)[C@@H]1CSSC[C@H](NC(=O)[C@H](CCCCN)NC(=O)[C@@H](N)CCCCNC(=O)CC[C@H](NC(=O)CCCCCCCCCCCCCCCCC(=O)O)C(=O)O)C(=O)N[C@@H](CC(N)=O)C(=O)N[C@@H]([C@@H](C)O)C(=O)N[C@@H](C)C(=O)N[C@@H]([C@@H](C)O)C(=O)N1)[C@@H](C)O)C(=O)N[C@@H](CC(C)C)C(=O)N1CCC[C@H]1C(=O)N1CCC[C@H]1C(=O)N[C@H](C(=O)N[C@@H](CCCNC(=N)N)C(=O)N[C@H](C(=O)NCC(=O)N[C@@H](CO)C(=O)N[C@@H](CC(N)=O)C(=O)N[C@H](C(=O)N[C@@H](Cc1ccc(O)cc1)C(N)=O)[C@@H](C)O)C(C)C)[C@@H](C)O [Peptide 52, K(γE-C18diacid)K[CNTATC]ATQRLANFLSHSS(Aib)NFGPILPPTRVGSNTY-amide] (H-K([γGlu-C18 diacid])KCNTATCATQRLANFLSHSS[Aib]NFGPILPPTRVGSNTY-NH2; disulfide 3-8; N-terminus assumed) | 1100 | 12 | 89
